Results taken from patent publication US20040101578A1, “Compositon containg ginkgo biloba that inhibit angiogenesis and matrix metalloprotinase” (priority 2003, published 2004).

Test system: human umbilical vein endothelial cells (HUVEC)
Test: Tube formation of HUVEC grown with Matrigel
Format: cell-based
Conditions: for Area of the tube: 50 μM compound in DMSO, DMSO control 88; for Area of the tube %: DMSO control = 100; for inhibition at 50 µM: Homo sapiens, HUVEC, read-out: percent inhibition of the tube formation
Experimental: In order to do the tube formation assay, blood vessel endothelial cells, that Is, human umbilical vein endothellal cells (HUVECs), were isolated. HUVECs were isolated from freshly obtained cords after cesarean section, and they were grown and identified by immunocytochemial staining with anti-Factor Vil antibody. HUVECs grown with Matrigel (BD Bioscience, Bedford, Mass., USA), were treated with 0.4 μg/μl of the above Ginkgo biloba leaf extract (Hwa II Pharmaceutical Co., LTD, Korea) of the EXAMPLE 1, and further incubated at 37° C. for […]. As a control, the procedure was repeated without Ginkgo biloba leaf extract.
The area of the tube was determined by the image analysis program Image-Pro Plus (Media Cybernetics, USA), and as summarized in Table I, tube formation after treatment of Ginkgo biloba leaf extract was inhibited by about 60% as compared with the untreated control.
Representative compounds from Ginkgo biloba, quercetin (Sigma Cat No. Q0125) and kaempferol (Indofine Chemical Cat No. K-102) as flavonoids, amentoflavon (Indofine Chemical Cat No. 021101S) as a biflavonoid and ginkolide A (Sigma Cat No. G4028) as a terpene-lactone, were subjected to the tube formation assay as described in EXAMPLE 1.
Since the above chemicals are not soluble in water, they were dissolved on dimethyl sulfoxide (DMSO), and in order to exclude the effect of solvent for these compounds, HUVECs treated with the same amount of DMSO were used as a control. FIG. 6 is a picture of the 1% DMSO-treated HUVEC control, and FIGS. 7-10 are pictures showing the effect on tube formation of individual compounds (quercetin, kaempferol, amentoflavon, and ginlkolide A, respectively). At 50 μM concentration, the order of inhibitory effect on HUVEC tube formation was quercetin>kaempferol>amentoflavon>ginkgolide A. Ginkgolide A was not effective even at 1 mM concentration.
Therefore, not biflavonoids but flavonoids such as quercetin and kaempferol, are the major component for angiogenesis inhibition in Ginkgo biloba leaf extract.

[1] = 50 μM compound, versus DMSO control

Question: `O=c1c(O)c(-c2ccc(O)cc2)oc2cc(O)cc(O)c12` [Kaempferol, kaempferol] was tested. Which “Area of the tube” value did it give?
Answer: Its value is 24.

Question: And the “Area of the tube %” value (50 μM compound)?
Answer: Its value is 27%.

Question: And the inhibition at 50 µM [1]?
Answer: The inhibition at 50 µM was 73%.

Question: How did the “Area of the tube” value turn out when `O=c1cc(-c2ccc(O)c(-c3c(O)cc(O)c4c(=O)cc(-c5ccc(O)cc5)oc34)c2)oc2cc(O)cc(O)c12` [Amentoflavon, amentoflavon] was run?
Answer: The value was 48.

Question: And the “percent inhibition of the tube formation” value [1]?
Answer: Its value is 45.

Question: And the “Area of the tube %” value (50 μM compound)?
Answer: Its value is 55%.

Question: How did the “Area of the tube” value turn out when `O=c1c(O)c(-c2ccc(O)c(O)c2)oc2cc(O)cc(O)c12` [Quercetin, quercetin] was run?
Answer: Its value is 6.6.

Question: What about the “Area of the tube %” value (50 μM compound) of the same molecule?
Answer: Its value is 7.5%.

Question: And the inhibition at 50 µM [1]?
Answer: Its inhibition at 50 µM is 93%.

Question: `C[C@@H]1C(=O)O[C@H]2C[C@@]34[C@H]5C[C@@H](C(C)(C)C)[C@]36[C@@H](OC(=O)[C@@H]6O)O[C@@]4(C(=O)O5)[C@]21O` [Ginkgolide A, ginkolide A] was tested. Which “effect on HUVEC tube formation” value (1 mM concentration) did it give?
Answer: Its value is “not effective”.
